For this assay, the target named is T1, BSA-NSP-DMAE (Bos taurus, UniProt P02769).
T1 construct: NSP-DMAE acridinium ester (chemical label attached through an amine-reactive NHS ester, about 1.4 per molecule)
As to the kind of experiment: Zwitterion label incorporation into acridinium ester labeled BSA, measured by MALDI-TOF mass spectroscopy. Details: species or system bovine. How it is done: The zwitterion-containing compounds of the present invention may also be useful for lowering the non-specific binding of hydrophobic and ‘sticky’ proteins. In one experiment, the chemical competency of certain exemplary amine-reactive zwitterion-containing compounds shown in FIG. 1 were evaluated by treating an acridinium ester (e.g., 2′,6′-Dimethyl-4′-(N-succinimidyloxycarbonyl)phenyl 10-Methyl-9-acridinecarboxylate Methylsulfate (NSP-DMAE) or other suitable acridinium esters described by Law et al. in U.S. Pat. No. 5,656,426, which is incorporated herein by reference) labeled bovine serum albumin (BSA) or bovine gamma globulin (BGG) with 10 and 20 equivalents of the zwitterion-containing compound followed by measurement of the zwitterion-containing compound incorporation by mass spectroscopy. The detailed experimental protocol is described in Example 15.
A solution of BSA (4 mg, 60 nmoles) in 1 mL of 0.1 M sodium bicarbonate was treated with 5 equivalents of 2′,6′-Dimethyl-4′-(N-succinimidyloxycarboxnyl)phenyl 10-(3′-Sulfopropyl)-acridinium-9-carboxylate (NSP-DMAE-NHS) added as a solution in DMF (72 μL of a 2 mg/mL solution in DMF). The reaction was stirred at room temperature for 4 hours. The reaction was then transferred to a 4 mL amicon filter (MW 30,000 cutoff) and diluted with 3 mL de-ionized water. The filter was centrifuged at 4000G for 8 minutes to reduce the volume to about 0.25 mL. The final conjugate was diluted to 0.8 mL with de-ionized water to give a 5 mg/mL solution. Acridinium ester label incorporation, measured by MALDI-TOF mass spectroscopy using sinnapinic acid as matrix indicated the incorporation of 1.4 labels.
Further labeling of the acridinium ester-labeled BSA conjugate with the zwitterion labels 1d, 2c, 3c and 4c was carried out as follows. The conjugate (0.5 mg, 7.5 nmoles, 100 μL) was diluted with 100 μL of sodium carbonate, pH 9. To this conjugate, in four separate reactions, was added 10 equivalents of the four zwitterion labels 1d, 2c, 3c and 4c dissolved in DMSO corresponding to 12.8 μL of a 2.5 mg/mL solution of 1d; 16.5 μL of a 2 mg/mL solution of 2c; 16.5 μL of a 2 mg/mL solution of 3c and 14 μL of a 2.5 mg/mL solution of 4c. The reactions were stirred at room temperature for 4 hours and were then processed as described above.

T1 sequence (P02769 25-607): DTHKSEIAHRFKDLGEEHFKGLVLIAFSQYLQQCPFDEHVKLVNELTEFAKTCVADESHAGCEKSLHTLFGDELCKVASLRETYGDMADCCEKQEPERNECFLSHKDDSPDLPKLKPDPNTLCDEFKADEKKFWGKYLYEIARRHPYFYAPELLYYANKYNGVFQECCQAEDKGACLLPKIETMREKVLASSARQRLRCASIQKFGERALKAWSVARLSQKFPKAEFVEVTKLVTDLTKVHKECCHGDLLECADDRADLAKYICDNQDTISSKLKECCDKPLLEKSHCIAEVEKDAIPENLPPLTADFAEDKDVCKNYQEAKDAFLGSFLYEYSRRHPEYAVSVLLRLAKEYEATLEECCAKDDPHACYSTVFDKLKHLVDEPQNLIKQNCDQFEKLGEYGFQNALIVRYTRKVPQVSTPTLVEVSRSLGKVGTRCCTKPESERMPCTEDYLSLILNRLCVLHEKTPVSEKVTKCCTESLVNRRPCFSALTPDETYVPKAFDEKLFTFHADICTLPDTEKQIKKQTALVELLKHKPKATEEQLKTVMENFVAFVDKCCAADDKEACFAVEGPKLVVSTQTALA

As for `C[N+](C)(CCCC(=O)Oc1c(F)c(F)c(F)c(F)c1F)CCCS(=O)(=O)[O-]` [Compound 2c], the “# of Zwitterion-Containing Compounds Incorporated by Conjugate” value is 5 (input 10 equivalents) and 8 (input 20 equivalents). As for `CCCOP(=O)([O-])OCC[N+](C)(C)CCCC(=O)Oc1c(F)c(F)c(F)c(F)c1F` [Compound 4c], the “# of Zwitterion-Containing Compounds Incorporated by Conjugate” value is, setting by setting: (input 10 equivalents) 3.4; (input 20 equivalents) 7.1. As to `C[N+](C)(CCCCS(=O)(=O)[O-])CCCC(=O)Oc1c(F)c(F)c(F)c(F)c1F` [Compound 3c], the “# of Zwitterion-Containing Compounds Incorporated by Conjugate” value (input 10 equivalents) is on record as 3.3. On to `C[N+](C)(CCCC(=O)Oc1c(F)c(F)c(F)c(F)c1F)CCS(=O)(=O)[O-]` [Compound 1d], for which, for the setting “input 10 equivalents”, the “# of Zwitterion-Containing Compounds Incorporated by Conjugate” value was found to be 5.

For the origin of these results see patent publication US10710962B2, “Zwitterionic reagents” (Siemens Healthcare Diagnostics Inc., priority 2010, dated 2020).
